Source: patent publication US10322143B2, “Inhibitors of ADAMTS4 or ADAMTS5 for use in preventing or treating cardiac remodeling and chronic heart failure” (Universitetet i Oslo, priority 2013, dated 2019)

What was measured:
[1] = target: ADAMTS4 (Rattus norvegicus (Rat), UniProt Q9ESP7); test: ADAMTS4 protein level in myocardial protein fractions (immunoblotting), aortic banding rats; format: in vivo; conditions: AB-rats after PPS-treatment
Experimental: (§1) Three days after AB, rats were stratified by the gradient over the stenosis to ensure similar degree of cardiac stress. Two and two stratified rats were randomized to either 6 mg/kg of the sulfated polysaccharide sodium pentosan polysulfate (PPS) (Interfarm AS, Norway) or vehicle (0.9% NaCl) injected subcutaneously every third day. […] Six weeks after AB or sham operation, the rats were examined by echocardiography and postmortem analysis, performed by experienced investigators (IS, JMA) blinded to treatment group.
Proteins from rat myocardium were extracted as previously described (Didangelos et al. J Biol Chem 2012. 287(23):19341-5). […]
Protein concentrations were measured using the Micro BCA Protein Assay Kit (Pierce/Thermo Scientific, IL). […]
Membranes were blocked in 5% non-fat dry-milk (170-6404, BioRad) overnight. […] Primary antibodies used were against ADAMTS4 (PA1-1750, Thermo Pierce Scientific, IL), versican full length (sc-25831, Santa Cruz Biotechnology, CA) and versican fragments displaying the neo-epitope DPEEAE (ab19345, Abcam, Cambrigde, UK) resulting from ADAMTS cleavage by ADAMTS1/4 (Sandy J D et al. J Biol Chem 2001. 276(16):13372-8; Didangelos A et al. supra), and quantified by ImageJ.

[2] = system: aortic banding rats; test: Aortic banding rat model: echocardiography and organ weights after PPS-treatment; format: in vivo; conditions: for Aorta / FS (fractional shortening) / Heart wt / IVSd (interventricular septal thickness at diastole) / LAD (left atrial diameter) / LV wt / LVDd (left ventricular diameter at diastole) / LVDs (left ventricular diameter at systole) / Lung wt / PWd (posterior wall thickness at diastole) / RV wt / Tissue Doppler Maximal velocity / Tissue Doppler Minimal velocity / HR (heart rate): PPS 6 mg/kg s.c. every third day, mean ± SEM; for HR (heart rate): in bpm (unit assumed)
From the text: The experimental procedures conformed to the European Convention for the Protection of Vertebrate Animals Used for Experimental and Other Scientific Purposes, and the protocols were approved by the Norwegian Council for Animal Research. Male Wistar rats weighing 160-170 g underwent AB essentially as described previously (Lunde et al. Physiol Genomics 2011. 44(2):162-72). Briefly, the ascending aorta was dissected free through a right hemithoracotomy, and ligated (3-0 silk) against a steel wire. The sham-operated rats (sham) were subjected to the same surgical procedure with a loose suture around the aorta. In all surgical procedures performed, a mixture of 67% N2O, 28% O2, and 4% isoflurane in an anaesthesia chamber was used for preoperative sedation. To maintain anaesthesia preoperatively, a mixture of 69% N2O, 29% O2, and 2% isoflurane was given by the endotracheal tube and the animals were ventilated on a respirator (Zoovent, Triumph Technical Services, Milton Keynes, UK). Buprenorphine was given as postoperative analgesia after AB.
In vivo heart function was evaluated using the Vevo2100 system (Visualsonics Inc, Canada) as previously described (Sjaastad et al. J Appl Physiol 2000; 89:1445-54). Thereafter, the heart was excised under deep anaesthesia, washed in saline and blotted dry to remove blood in the cardiac chambers. The heart chambers were separated by rapid dissection, before being snap-frozen in liquid nitrogen and stored at −70° C. until further analyses. For AB rats not receiving PPS- or vehicle treatment, selection into heart failure (ABHF) or hypertrophy (ABHT) groups was based on echocardiographic and postmortem analysis, as follows: Inclusion criteria for ABHF group were increased lung weight (>2.5 g), increased posterior wall diameter in diastole (PWDd) (>2.0 mm) and increased left atrial diameter (>5.0 mm), while criteria for inclusion in the ABHT group were increased PWDd (>2.0 mm), increased left ventricular weight (>0.75 g) and preserved lung weight (<2.0 g).
as §1

[3] = PPS-treated vs vehicle-treated AB-rats
[4] = aortic banding rats, six weeks after AB

- level of ADAMTS4 in the protein fractions [1]: not altered
Substance: pentosan polysulfate [PPS]
- side effects including haemorrhage ([2]; AB rats, 6 mg/kg s.c. every third day, observed at daily basis): no side effects
- lung weight compared to vehicle ([2]; PPS-treated AB-rats): tendency towards lower
- higher fractional shortening compared to vehicle-treated AB-rats [2, 3]: 23%
- left ventricular diameter in systole as part of the diameter in vehicle-treated AB-rats [2, 3]: three quarters
- Aorta [2, 4]: 2.56 ± 0.03 mm
- FS (fractional shortening) [2, 4]: 59.2 ± 1.5%
- Heart wt [2, 4]: 1.87 ± 0.09 g
- IVSd (interventricular septal thickness at diastole) [2, 4]: 2.11 ± 0.06 mm
- LAD (left atrial diameter) [2, 4]: 4.18 ± 0.14 mm
- LV wt [2, 4]: 0.95 ± 0.07 g
- LVDd (left ventricular diameter at diastole) [2, 4]: 6.53 ± 0.13 mm
- LVDs (left ventricular diameter at systole) [2, 4]: 2.67 ± 0.12 mm
- Lung wt [2, 4]: 1.64 ± 0.08 g
- PWd (posterior wall thickness at diastole) [2, 4]: 2.13 ± 0.06 mm
- RV wt [2, 4]: 0.18 ± 0.01 g
- Tissue Doppler Maximal velocity [2, 4]: 50.70 ± 2.94
- Tissue Doppler Minimal velocity [2, 4]: 59.06 ± 3.26
- HR (heart rate) [2, 4]: 420 ± 6
- Aorta ([2]; sham-operated rats, six weeks): 2.63 ± 0.04 mm
- FS (fractional shortening) ([2]; sham-operated rats, six weeks): 53.6 ± 5.8%
- Heart wt ([2]; sham-operated rats, six weeks): 1.19 ± 0.11 g
- IVSd (interventricular septal thickness at diastole) ([2]; sham-operated rats, six weeks): 1.56 ± 0.04 mm
- LAD (left atrial diameter) ([2]; sham-operated rats, six weeks): 3.68 ± 0.14 mm
- LV wt ([2]; sham-operated rats, six weeks): 0.70 ± 0.03 g
- LVDd (left ventricular diameter at diastole) ([2]; sham-operated rats, six weeks): 6.89 ± 0.10 mm
- LVDs (left ventricular diameter at systole) ([2]; sham-operated rats, six weeks): 3.20 ± 0.41 mm
- Lung wt ([2]; sham-operated rats, six weeks): 1.41 ± 0.03 g
- PWd (posterior wall thickness at diastole) ([2]; sham-operated rats, six weeks): 1.68 ± 0.08 mm
- RV wt ([2]; sham-operated rats, six weeks): 0.17 ± 0.01 g
- Tissue Doppler Maximal velocity ([2]; sham-operated rats, six weeks): 72.9 ± 8.6
- Tissue Doppler Minimal velocity ([2]; sham-operated rats, six weeks): 82.4 ± 6.1
- HR (heart rate) ([2]; sham-operated rats, six weeks): 412 ± 11
